# Experimental data taken from publication doi:10.1101/2023.11.08.566240v2, “Divergent Protein Kinase A contributes to the regulation of flagellar waveforms in Leishmania mexicana” (biorxiv, 2025).
# Target: T1, LmxPKAR1-LmxPKAC1 (mNG::PKAC1) (Leishmania mexicana, UniProt E9AP50)
# T1 construct: gene LMXM_13_0160; with protein kinase A catalytic subunit isoform 1
# T1 sequence (E9AP50 1-503): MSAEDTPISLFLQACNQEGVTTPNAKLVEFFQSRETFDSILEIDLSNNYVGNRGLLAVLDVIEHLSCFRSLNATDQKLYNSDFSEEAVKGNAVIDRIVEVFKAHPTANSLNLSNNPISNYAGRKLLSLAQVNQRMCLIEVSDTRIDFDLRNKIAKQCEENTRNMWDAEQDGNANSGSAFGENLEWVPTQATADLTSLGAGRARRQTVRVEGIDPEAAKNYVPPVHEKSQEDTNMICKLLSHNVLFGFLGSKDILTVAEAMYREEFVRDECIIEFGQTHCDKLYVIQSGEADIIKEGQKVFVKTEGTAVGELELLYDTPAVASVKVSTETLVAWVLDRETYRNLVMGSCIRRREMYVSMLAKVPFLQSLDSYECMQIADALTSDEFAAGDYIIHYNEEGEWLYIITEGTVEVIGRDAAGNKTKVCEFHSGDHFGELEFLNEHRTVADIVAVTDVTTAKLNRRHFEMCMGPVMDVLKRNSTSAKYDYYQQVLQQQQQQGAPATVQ
# T1 sequence (E9B6S9 1-371 partner): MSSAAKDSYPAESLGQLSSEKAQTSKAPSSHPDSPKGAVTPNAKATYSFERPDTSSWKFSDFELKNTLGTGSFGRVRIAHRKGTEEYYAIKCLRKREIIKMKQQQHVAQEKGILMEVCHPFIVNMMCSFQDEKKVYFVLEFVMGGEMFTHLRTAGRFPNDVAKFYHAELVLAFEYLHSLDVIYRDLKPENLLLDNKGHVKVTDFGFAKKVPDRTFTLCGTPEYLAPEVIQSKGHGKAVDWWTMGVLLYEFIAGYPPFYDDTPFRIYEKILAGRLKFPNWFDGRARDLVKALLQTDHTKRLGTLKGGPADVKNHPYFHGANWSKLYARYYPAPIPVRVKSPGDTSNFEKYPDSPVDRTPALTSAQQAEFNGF
# Assay: release of mNG::PKAC1 fluorescence from flagellar cytoskeletons, microscopy
# Format: biochemical
# Settings: indirect assay of PKAR1 activation; detergent-extracted cytoskeletons in PEME buffer; 10 nM to 10 µM inosine
smiles,measurement,value
OC[C@H]1O[C@@H](n2cnc3c(O)ncnc32)[C@H](O)[C@@H]1O [inosine],EC50,~9 nM
